For this assay, the system named is K328M-Wee1-Luc fusion protein in transiently transfected HeLa cells. Nature of the assay: K328M-Wee1-Luc degradation. It is filed as cell-based.

Structures are written as SMILES. Read-outs that look alike come from different tables or passages of the source. Where a SMILES comes first, the peptide text is derived from it. The star is where a group is joined. Cbz = O=C(OCc1ccccc1)* Where only a bound is given, the exact number is not on record here.

Consider 1 compound from PMC3082437 (Journal of biomolecular screening, 2010).

For the compound `CC(C)C[C@@H](C=O)NC(=O)[C@H](CC(C)C)NC(=O)[C@H](CC(C)C)NC(=O)OCc1ccccc1` [MG132, Z-Leu-Leu-Leu-CHO] (Cbz-Leu-Leu-Leu-aldehyde), the “hill slope of dose-response curve” value is given as greater than 2.5. Besides, the “increase in luminescent levels” value (30 μM, vs DMSO) is listed as greater than 9 fold. Besides, the EC50 (optimized 1536-well protocol, n=5) turned out to be 4.69 µM. In addition, the EC50 (read-out: EC50, different thawed vials from a single batch, n=4) was found to be 4.7 µM. Besides, under “read-out: EC50, non-cryopreserved cells, non-cryopreserved cell suspensions”, the EC50 stood at 5.33 µM.

The EC50 is the concentration at which the effect is half-maximal.
